Results reported in paper PMC9775004 (Biosensors, 2022).
Like-named read-outs stand apart in the source and are kept apart here.

What was measured:
FILLac10N0C = assay: FRET emission ratio (Venus to mTFP) response of purified FILLac10N0C; type: binding, Salmonella enterica serovar Typhimurium LT2
Description: The FILLac expression vectors were constructed based on the plasmid pETDuet-mTFP-Venus carrying mTFP gene and Venus gene. The original STlldR gene, its truncated variants or variants with artificial linkers were inserted between the mTFP gene and Venus gene by T5 exonuclease DNA assembly method (TEDA) to construct pETDuet-FILLac0N0C and its variants.
The purified FILLac and different compounds were diluted with 50 mM Tris-HCl buffer (pH 7.4), and then mixed at a volume ratio of 3:1 into a black 96-well microplate for a total detection volume of 100 μL. The final concentration of FILLac in the reaction mixture was 1 μM. The fluorescence intensities of FILLac at 485 nm (mTFP) and 528 nm (Venus) were detected by using an EnSight multifunctional microplate detector (PerkinElmer, USA) with excitation at 430 nm. […] The maximum ratio changes (ΔRmax) were calculated according to the following formula:(2) ΔRmax=−Rmax−Rmin/Rmin. […]

PaLldR = assay: Fluorescence-based thermal shift (FTS) assay with PaLldR; type: binding, Pseudomonas aeruginosa PAO1; settings: 1 mM compound, 10 μM LldR
Description: (§1) The gene STlldR encoding LldR of S. Typhimurium LT2 (STLldR) was amplified from genome of the strain, and then ligated into the plasmid pET28a to construct pET28a-STlldR. The recombinant plasmid pET28a-STlldR was transformed into E. coli BL21 (DE3) for STLldR expression. The expression strain was cultured in LB medium at 37 °C until an optical density at 600 nm (OD600) of 0.6 and induced with 1 mM isopropyl-β-D-thiogalactoside (IPTG) at 16 °C for 12 h. […] The purified STLldR was analyzed by 13% sodium dodecyl sulfate-polyacrylamide gel electrophoresis (SDS-PAGE). The protein concentration was determined using a Bradford protein assay kit (Sangon, Shanghai, China), and stored at –80 °C. […]
(§2) FTS assays were performed using a LightCycler 480 system (Roche, Indianapolis, IN, USA) with the filter set to excitation wavelength 465 nm and emission wavelength 580 nm for SYPRO orange. […] The melting temperature (Tm) of LldR was calculated from the negative first derivative value of the raw fluorescence data. Thermal shift temperature (ΔTm) was calculated by subtracting the Tm of the control from the Tm of LldR with the addition of different compounds. […]

EcLldR = biological target: T1, EcLldR (Escherichia coli, UniProt P0ACL7); assay: Fluorescence-based thermal shift (FTS) assay with EcLldR; type: binding, E. coli MG1655; settings: 1 mM compound, 10 μM LldR
T1 construct: His tag (inferred from pET28a and HisTrap purification); made in house; host or cells: E. coli BL21 (DE3)
T1 sequence (P0ACL7 whole entry): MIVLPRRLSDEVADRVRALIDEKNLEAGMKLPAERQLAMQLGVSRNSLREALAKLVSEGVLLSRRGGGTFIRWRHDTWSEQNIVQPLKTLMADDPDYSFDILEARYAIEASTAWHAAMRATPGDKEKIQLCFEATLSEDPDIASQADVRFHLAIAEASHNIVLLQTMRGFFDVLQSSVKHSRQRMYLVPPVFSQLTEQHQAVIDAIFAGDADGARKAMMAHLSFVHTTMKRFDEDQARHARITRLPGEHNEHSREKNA
Description: as §1, §2

PfLldR = assay: Fluorescence-based thermal shift (FTS) assay with PfLldR; type: binding, P. fluorescens A506; settings: 1 mM compound, 10 μM LldR
Description: as §1, §2

SMILES: O=C(O)CC[C@@H](O)C(=O)O [D-2-hydroxyglutarate]
- fluorescence emission ratio change of FILLac10N0C (specificity analysis) (FILLac10N0C; 50 μM compound): did not change the emission ratio

SMILES: O=C(O)C[C@H](O)C(=O)O [L-malate]
- fluorescence emission ratio change of FILLac10N0C (specificity analysis) (FILLac10N0C; 50 μM compound): did not change the emission ratio

SMILES: C[C@@H](O)C(=O)O [D-lactate]
- change in Tm (ΔTm) of PaLldR (PaLldR): significant changes in Tm
- change in Tm (ΔTm) of EcLldR (EcLldR): significant changes in Tm
- change in Tm (ΔTm) of PfLldR (PfLldR): significant changes in Tm

SMILES: [Mg+2] [Mg^2+]
- fluorescence emission ratio change of FILLac10N0C (specificity analysis) (FILLac10N0C; 50 μM compound): did not change the emission ratio

SMILES: [Na+] [Na^+]
- fluorescence emission ratio change of FILLac10N0C (specificity analysis) (FILLac10N0C; 50 μM compound): did not change the emission ratio

SMILES: N [NH4^+]
- fluorescence emission ratio change of FILLac10N0C (specificity analysis) (FILLac10N0C; 50 μM compound): did not change the emission ratio

SMILES: O=C(O)/C=C/C(=O)O [fumarate]
- fluorescence emission ratio change of FILLac10N0C (specificity analysis) (FILLac10N0C; 50 μM compound): did not change the emission ratio

SMILES: O=CC(=O)O [glyoxylate]
- fluorescence emission ratio change of FILLac10N0C (specificity analysis) (FILLac10N0C; 50 μM compound): did not change the emission ratio

SMILES: O=C(O)CC(O)(CC(=O)O)C(=O)O [citrate]
- fluorescence emission ratio change of FILLac10N0C (specificity analysis) (FILLac10N0C; 50 μM compound): did not change the emission ratio

SMILES: [K+] [K^+]
- fluorescence emission ratio change of FILLac10N0C (specificity analysis) (FILLac10N0C): did not change the emission ratio

SMILES: CC(=O)O [acetate]
- fluorescence emission ratio change of FILLac10N0C (specificity analysis) (FILLac10N0C; 50 μM compound): did not change the emission ratio

SMILES: N[C@@H](CCC(=O)O)C(=O)O [L-glutamate]
- fluorescence emission ratio change of FILLac10N0C (specificity analysis) (FILLac10N0C; 50 μM compound): did not change the emission ratio

SMILES: O=C(O)/C=C(/CC(=O)O)C(=O)O [cis-aconitate]
- fluorescence emission ratio change of FILLac10N0C (specificity analysis) (FILLac10N0C; 50 μM compound): did not change the emission ratio

SMILES: O=C(O)CCC(=O)C(=O)O [2-ketoglutarate]
- fluorescence emission ratio change of FILLac10N0C (specificity analysis) (FILLac10N0C; 50 μM compound): did not change the emission ratio

SMILES: [Ca+2] [Ca^2+]
- fluorescence emission ratio change of FILLac10N0C (specificity analysis) (FILLac10N0C; 50 μM compound): did not change the emission ratio

SMILES: O=C(CO)[C@@H](O)[C@H](O)[C@H](O)CO [fructose]
- fluorescence emission ratio change of FILLac10N0C (specificity analysis) (FILLac10N0C; 50 μM compound): did not change the emission ratio

SMILES: O=C(O)CC(=O)C(=O)O [oxaloacetate]
- fluorescence emission ratio change of FILLac10N0C (specificity analysis) (FILLac10N0C; 50 μM compound): did not change the emission ratio

SMILES: C[C@H](O)C(=O)O [L-lactate]
- change in Tm (ΔTm) of PaLldR (PaLldR): significant changes in Tm
- change in Tm (ΔTm) of EcLldR (EcLldR): significant changes in Tm
- change in Tm (ΔTm) of PfLldR (PfLldR): significant changes in Tm

SMILES: O=C(O)CC[C@H](O)C(=O)O [L-2-hydroxyglutarate]
- fluorescence emission ratio change of FILLac10N0C (specificity analysis) (FILLac10N0C; 50 μM compound): did not change the emission ratio

SMILES: CC(=O)C(=O)O [pyruvate]
- fluorescence emission ratio change of FILLac10N0C (specificity analysis) (FILLac10N0C; 50 μM compound): did not change the emission ratio
- effect on detection of L-lactate by FILLac10N0C (FILLac10N0C; 50 μM of the compound present in the L-lactate dose-response): not affected

SMILES: O=C(O)C[C@@H](O)C(=O)O [D-malate]
- fluorescence emission ratio change of FILLac10N0C (specificity analysis) (FILLac10N0C; 50 μM compound): did not change the emission ratio

SMILES: OC[C@H]1OC(O)[C@H](O)[C@@H](O)[C@@H]1O (stereo partly shown) [glucose]
- fluorescence emission ratio change of FILLac10N0C (specificity analysis) (FILLac10N0C; 50 μM compound): did not change the emission ratio

SMILES: O=C(O)CCC(=O)O [succinate]
- fluorescence emission ratio change of FILLac10N0C (specificity analysis) (FILLac10N0C): did not change the emission ratio
